Experimental findings from patent US20100267561A1, “HERBICIDAL PYRIDAZINONE DERIVATIVES” (priority 2007, published 2010) are described below.

Assay type in all cases: in vivo
The subject of assay [1] is wild oat (AVEFA, Avena fatua). In words: Test F mixtures with safener cloquintocet-mexyl, pre-/postemergence plant response. Particulars: applied alone. The text has this: (§1) This test evaluated the effect of mixtures of Compound 3, Compound 11, or Compound 12 with the commercial crop safener cloquintocet-mexyl on three plant species. Seeds of test plants consisting of winter wheat (TRZAW, Triticum aestivum), winter barley (HORVX, Hordeum vulgare), and wild oat (AVEFA, Avena fatua) (a weed) were planted into a blend of loam soil and sand and treated preemergence with a directed soil spray using test chemicals formulated in a non-phytotoxic solvent mixture that included a surfactant. At the same time, plants selected from these crop and weed species were treated with postemergence applications of the test chemicals formulated in the same manner. Plants ranged in height from 2 to 18 cm (1- to 4-leaf stage) for postemergence treatments.
(§2) Plants were grown in a greenhouse using supplemental lighting to maintain a photoperiod of about 16 hours; daytime and nighttime temperatures were about 24-30° C. and 19-21° C., respectively. Balanced fertilizer was applied through the watering system. Treatments consisted of Compound 3, Compound 11, or Compound 12 and the above mentioned safener alone and in combination using a spray volume of 457 L/ha. Each treatment was replicated three times. Treated plants and controls were maintained in a greenhouse for 14 to 21 days, after which time all treated plants were compared to controls and visually evaluated. Plant response ratings were calculated as the means of the three replicates and are summarized in Tables F1 to F6, and are based on a scale of 0 to 100 where 0 is no effect and 100 is complete control. Because cloquintocet-mexyl alone caused no injury at the rates tested, the expected effect of a mixture of Compound 3 with cloquintocet-mexyl is the same as the observed effect of Compound 3 applied alone.

Assay [2] concerns winter wheat (TRZAW, Triticum aestivum). Described as above. As to conditions: applied alone.
Source text: as §1, §2

The subject of assay [3] is canola (Brassica rapa). In words: Test C pre-/postemergence plant response. Summed up:
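Seeds are planted and sprayed preemergence, while established plants at the 1- to 4-leaf stage (2 to 18 cm) receive postemergence sprays of the same surfactant-containing, non-phytotoxic solvent formulation. After 15 to 25 days under controlled conditions, injury is scored visually from 0 (no effect) to 100 (complete control).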

The test system of assay [4] is tropical (T.) spiderwort (Commelina benghalensis). In words: Test E pre-/postemergence plant response. As to conditions: scale 0 to 100. In a few lines: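 Visual rating 0–100 vs untreated controls (0 = no effect, 100 = complete control) after 14–21 d greenhouse. Pre- and postemergence treatments; compound in non-phytotoxic solvent mix + surfactant. Post plants 2–18 cm, 1- to 4-leaf stage.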

Where [5] appears, read: Postemergence, 8 g ai/ha, scale 0 to 100, 0 no effect, 100 complete control.
Setting [6] is: Postemergence, 16 g ai/ha, scale 0 to 100, 0 no effect, 100 complete control.
Setting [7] is: Postemergence, 31 g ai/ha, scale 0 to 100, 0 no effect, 100 complete control.
Where [8] appears, read: Postemergence, 62 g ai/ha, scale 0 to 100, 0 no effect, 100 complete control.
[9] abbreviates: Preemergence, 8 g ai/ha, scale 0 to 100 (0 no effect, 100 complete control).
Setting [10] is: Preemergence, 16 g ai/ha, scale 0 to 100 (0 no effect, 100 complete control).
[11] abbreviates: Preemergence, 31 g ai/ha, scale 0 to 100 (0 no effect, 100 complete control).
Where [12] appears, read: Preemergence, 62 g ai/ha, scale 0 to 100, 0 no effect, 100 complete control.

Take “4-[3-(4-chlorophenyl)-5-methyl-1H-pyrazol-3-yl]-5-hydroxy-2-methyl-3(2H)-pyridazinone [Compound 3]”: the “AVEFA Obsd. (observed effect) plant response rating, scale 0 to 100” value in assay [1] (postemergence, 4 g a.i./ha) was 27; in assay [1] (postemergence, 8 g a.i./ha), 67; in assay [1] (postemergence, 16 g a.i./ha) it was 83; in assay [1] (preemergence, 4 g a.i./ha) it was 0; in assay [1] (preemergence, 8 g a.i./ha), 35; in assay [1] (preemergence, 16 g a.i./ha), 60. In addition, the “TRZAW Obsd. (observed effect) plant response rating, scale 0 to 100” value in assay [2] (postemergence, 4 g a.i./ha) is reported as 0; in assay [2] (postemergence, 8 g a.i./ha), 0; in assay [2] (postemergence, 16 g a.i./ha) it was 22; in assay [2] (preemergence, 4 g a.i./ha) it was 0; in assay [2] (preemergence, 8 g a.i./ha), 33; in assay [2] (preemergence, 16 g a.i./ha) it was 77.

For `CCc1cc(-c2ccc(Cl)c(Cl)c2)nn1-c1c(O)cnn(C)c1=O` [Compound 20], the “Plant response rating, Canola” value in assay [3] (setting [5]), in assay [3] (setting [6]), in assay [3] (setting [7]) and in assay [3] (setting [8]) was 0 throughout.

With `CCc1cc(-c2ccc(F)cc2)nn1-c1c(O)cnn(C)c1=O` [Compound 25], the “Plant response rating, Canola” value in assay [3] (setting [5]), in assay [3] (setting [6]), in assay [3] (setting [7]), in assay [3] (setting [8]), in assay [3] (setting [9]) and in assay [3] (setting [10]) was 0 each time. In addition, the “Plant response rating, Canola” value in assay [3] (setting [11]) and in assay [3] (setting [12]) was 0 in each case.

Take `CCc1c(C)c(-c2ccc(Cl)cc2)nn1-c1c(O)cnn(C)c1=O` [Compound 26, 4-[3-(4-chlorophenyl)-5-ethyl-4-methyl-1H-pyrazol-1-yl]-5-hydroxy-2-methyl-3(2H)-pyridazinone]: the “Plant response rating, Canola” value in assay [3] (setting [5]), in assay [3] (setting [6]), in assay [3] (setting [7]), in assay [3] (setting [8]), in assay [3] (setting [11]) and in assay [3] (setting [12]) was 0 in each case.

With `Cn1ncc(O)c(-c2nn(-c3ccc(Cl)cc3)cc2Cl)c1=O` [Compound 28], the “Plant response rating, Canola” value in assay [3] (setting [9]), in assay [3] (setting [10]), in assay [3] (setting [11]) and in assay [3] (setting [12]) was 0 throughout.

Turning to `Cc1cn(-c2ccc(Cl)cc2)nc1-c1c(O)cnn(C)c1=O` [Compound 30, 4-[1-(4-chlorophenyl)-4-methyl-1H-pyrazol-3-yl]-5-hydroxy-2-methyl-3(2H)-pyridazinone], the “Plant response rating, Canola” value in assay [3] (setting [9]), in assay [3] (setting [10]), in assay [3] (setting [11]) and in assay [3] (setting [12]) was 0 in each case.

As for `Cn1ncc(O)c(-c2nn(-c3ccc(Cl)cc3)cc2Br)c1=O` [Compound 31], the “Plant response rating, Spiderwort, T.” value came to 0 in assay [4] (16 g ai/ha, Preemergence); 0 in assay [4] (31 g ai/ha, Preemergence); 0 in assay [4] (62 g ai/ha, Preemergence); 0 in assay [4] (Postemergence, 8 g ai/ha); 0 in assay [4] (Postemergence, 16 g ai/ha); 0 in assay [4] (Postemergence, 31 g ai/ha). Besides, the “Plant response rating, Spiderwort, T.” value in assay [4] (Postemergence, 62 g ai/ha) is 0.

With `COC(=O)Oc1cnn(C)c(=O)c1-n1nc(-c2ccc(Cl)cc2)cc1C` [Compound 33], the “Plant response rating, Canola” value in assay [3] (setting [9]), in assay [3] (setting [10]), in assay [3] (setting [11]) and in assay [3] (setting [12]) was 0 in each case. The “Plant response rating, Spiderwort, T.” value is 0 in assay [4] (16 g ai/ha, Preemergence); 0 in assay [4] (31 g ai/ha, Preemergence); 0 in assay [4] (62 g ai/ha, Preemergence); 0 in assay [4] (Postemergence, 8 g ai/ha); 0 in assay [4] (Postemergence, 16 g ai/ha); 0 in assay [4] (Postemergence, 62 g ai/ha).

As for `Cc1cc(-c2ccc(Cl)cc2)nn1-c1c(OS(C)(=O)=O)cnn(C)c1=O` [Compound 36], the “Plant response rating, Spiderwort, T.” value is listed as 0 in assay [4] (16 g ai/ha, Preemergence); 0 in assay [4] (31 g ai/ha, Preemergence); 0 in assay [4] (62 g ai/ha, Preemergence); 0 in assay [4] (Postemergence, 8 g ai/ha); 0 in assay [4] (Postemergence, 16 g ai/ha); 0 in assay [4] (Postemergence, 31 g ai/ha). In addition, the “Plant response rating, Spiderwort, T.” value in assay [4] (Postemergence, 62 g ai/ha) was determined as 0.

With `CCc1cc(-c2ccc(Cl)cc2)nn1-c1c(OS(C)(=O)=O)cnn(C)c1=O` [Compound 39], the “Plant response rating, Spiderwort, T.” value in assay [4] (16 g ai/ha, Preemergence) is reported as 0; in assay [4] (31 g ai/ha, Preemergence) it was 0; in assay [4] (62 g ai/ha, Preemergence), 0; in assay [4] (Postemergence, 8 g ai/ha) it was 0; in assay [4] (Postemergence, 16 g ai/ha), 0; in assay [4] (Postemergence, 31 g ai/ha), 0. Moreover, the “Plant response rating, Spiderwort, T.” value in assay [4] (Postemergence, 62 g ai/ha) came out at 0.

As for `CCc1cc(-c2ccc(Cl)cc2)nn1-c1c(OC(=O)C(C)(C)C)cnn(C)c1=O` [Compound 40], the “Plant response rating, Spiderwort, T.” value is 0 in assay [4] (16 g ai/ha, Preemergence); 0 in assay [4] (31 g ai/ha, Preemergence); 0 in assay [4] (62 g ai/ha, Preemergence); 0 in assay [4] (Postemergence, 8 g ai/ha); 0 in assay [4] (Postemergence, 16 g ai/ha); 0 in assay [4] (Postemergence, 31 g ai/ha). Further, in assay [4] (Postemergence, 62 g ai/ha), the “Plant response rating, Spiderwort, T.” value is on record as 0.

Take `CCc1cc(-c2ccc(Cl)cc2)nn1-c1c(OC(=O)OC(C)C)cnn(C)c1=O` [Compound 41]: the “Plant response rating, Canola” value in assay [3] (setting [9]), in assay [3] (setting [10]), in assay [3] (setting [11]) and in assay [3] (setting [12]) was 0 throughout.

For `Cc1cc(-c2ccc(Cl)cc2)nn1-c1c(OC(=O)OCC(C)C)cnn(C)c1=O` [Compound 57], the “Plant response rating, Canola” value in assay [3] (setting [5]), in assay [3] (setting [6]), in assay [3] (setting [7]), in assay [3] (setting [8]), in assay [3] (setting [9]) and in assay [3] (setting [12]) was 0 each time.
